Measurements reported in US11365161B2, “Urea ammonium sulphate-based composition and method for the manufacture thereof” (YARA INTERNATIONAL ASA, priority 2018, dated 2022).
“Also recorded” adds a separate entry of the source.

Legend:
Assay type in all cases: physicochemical
pH of MgSO4 grades = assay: pH of MgSO4 grades
[1] = Volatilization measurements (ammonia release, 2 L diffusion kit, Draeger tube); details: YaraVera Amidas product comprising 462 ppm nBTPT, treated with stabilizer (FIG. 1, Table 1)
Text: 1. Volatilization Measurements (Ammonia Release 2 L Diffusion Kit) […] Through the lid, a […] tube is placed for the measurement of vol % ammonia. The […] tube turns from yellow to bleu/purple when ammonia is absorbed by the tube. The amount of vol % ammonia released can be followed in time. Experiment 1 defines the problem.

[2] = Stability of nBTPT on urea ammonium sulphate (YaraVera Amidas) during storage, HPLC analysis of nBTPT content; details: for Stabilizing effect on nBTPT (MgSO4/MgO combinations): Experiment 4: YaraVera Amidas product comprising 462 ppm nBTPT (FIG. 4)
Protocol: For lab scale experiments, 1.2 kg of solid fertilizer material was added to a lab scale drum. […] A residence time of 10 minutes was applied and the rotating speed of the drum was consequently the same in each experiment. […] Before use, the moisture-repellent coating was preheated to 80° C. Larger scale experiments with amounts up to 40 kg of fertilizer material were performed in a concrete mixer. The samples were stored under several conditions, dependent on the type of samples: • Bagged at room temperature (18-25° C.) • Bagged at 40° C. • Open to air at room temperature (18-25° C.) 3.

O=S(=O)([O-])[O-].[Mg+2] [MgSO4 99.5%, MgSO4 anhydrous, >99.5%]
pH (pH of MgSO4 grades): 8.5

O=S(=O)([O-])[O-].[Ca+2] [CaSO4, CaSO4 anhydrous]
Ammonia release [1]: no ammonia release

[O]=[Ca] [CaO, calcium oxide]
Ammonia release [1]: producing ammonia

O=S(=O)([O-])[O-].[Mg+2] [MgSO4 99.999%, MgSO4 anhydrous, 99.999%]
pH (pH of MgSO4 grades): 6.1

O=S(=O)([O-])[O-].[Mg+2] [MgSO4, magnesium sulphate]
Ammonia release [1]: no ammonia release; also recorded: no ammonia is generated | Stabilizing effect on nBTPT in the presence of UAS ([2]; Experiment 2: open to air at room temperature 40 days (FIG. 2A) and in bags at 40 °C 8 days (FIG. 2B), 462 ppm nBTPT): comparable with the effect of the prior art compound (CaO) | Stabilizing effect on nBTPT (MgSO4/MgO combinations) [2]: little effect | Stabilizing effect at higher level of magnesium sulphate ([2]; more than 1 weight % magnesium sulphate in the composition): did not produce a proportionally better stabilizing effect

O=S(=O)([O-])[O-].[Na+].[Na+] [Na2SO4, reference compound]
nBTPT stability on the YaraVera Amidas product ([2]; Experiment 3: open plastic containers at room temperature for 21 days, 462 ppm nBTPT (FIG. 3)): negative effect on the stability of nBTPT

[O]=[Mg] [MgO, magnesium oxide, reference compound]
Ammonia release [1]: producing ammonia | Stabilizing effect on nBTPT (MgSO4/MgO combinations) [2]: more effective than CaO
